# Measurements published in patent publication US5602106A, “16-membered macrolide derivatives” (priority 1993, dated 1997).
# Where two headings read alike, the source gives them in different places.
# Key:
# Format in all cases: cell-based
# S. pneumoniae IP692 = test: MIC, agar plate dilution method; conditions: Streptococcus pneumoniae, IP692, 20 h
# Description: (§1) The effect of the first aspect of the present invention resides in the creation of a novel and useful 16-membered macrolide derivative. Antimicrobial activities of the compounds of the present invention were determined by measuring minimum inhibitory concentration (MIC). Minimum inhibitory concentration was determined by the agar plate dilution method in the following manner.
# (§2) Test strains were subjected to seed culture using Sensitivity test broth (STB, Nissui Pharmaceutical) except that the strains belonging to the genus Streptococcus, Branhamella and Haemophilus were cultured on blood agar plate. A 5 μl portion of cell suspension of the test strains having about 10^6 CFU/ml was inoculated into Sensitivity disk agar (SDA, Nissui Pharmaceutical) supplemented with 5% horse blood and incubated at 37° C. for 20 hours. Then, MIC was measured. […] Antimicrobial activities in vitro of the compounds (1) and (2) are shown in Table 1, and those of the compounds (3) and (4) in Table 3.
# S. aureus MS15009/pMS98 = test: MIC, agar plate dilution method; conditions: Staphylococcus aureus, MS15009/PMS98, 20 h, read-out: Antimicrobial activity (MIC), 37° C., 20 hours, SDA with 5% horse blood
# Description: as §1, §2
# S. aureus MS15027 = test: MIC, agar plate dilution method; conditions: Staphylococcus aureus
# Description: as §1, §2
# K. pneumoniae PCI602 = test: MIC, agar plate dilution method; conditions: 37° C., SDA with 5% horse blood; for MIC: Klebsiella pneumoniae, PCI602, 20 h, read-out: Antimicrobial activity (MIC)
# Description: as §1, §2
# S. aureus MS15026 = test: MIC, agar plate dilution method; conditions: Staphylococcus aureus, 37° C., 20 hours, SDA with 5% horse blood, read-out: Antimicrobial activity (MIC)
# Description: as §1, §2
# M. luteus ATCC9341 = test: MIC, agar plate dilution method; conditions: Micrococcus luteus, ATCC9341; 37° C., 20 hours, SDA with 5% horse blood; read-out: Antimicrobial activity (MIC)
# Description: as §1, §2
# S. aureus MS15009/pMS99 = test: MIC, agar plate dilution method; conditions: Staphylococcus aureus, MS15009/PMS99, 20 h, read-out: Antimicrobial activity (MIC)
# Description: as §1, §2
# B. catarrhalis W-0500 = test: MIC, agar plate dilution method; conditions: Moraxella catarrhalis
# Description: as §1, §2
# B. catarrhalis W-0506 = test: MIC, agar plate dilution method; conditions: for MIC: Moraxella catarrhalis
# Description: as §1, §2
# S. pneumoniae Type 1 = test: MIC, agar plate dilution method; conditions: Streptococcus pneumoniae, TYPE1; 37° C., 20 hours, SDA with 5% horse blood; read-out: Antimicrobial activity (MIC)
# Description: as §1, §2
# S. aureus 209P JC-1 = test: MIC, agar plate dilution method; conditions: for MIC: Staphylococcus aureus, 209P, 20 h
# Description: as §1, §2
# S. aureus M133 = test: MIC, agar plate dilution method; conditions: Staphylococcus aureus, M133, 20 h, read-out: Antimicrobial activity (MIC), 37° C., 20 hours, SDA with 5% horse blood
# Description: as §1, §2
# E. faecalis W-73 = test: MIC, agar plate dilution method; conditions: Enterococcus faecalis, W73, 20 h, read-out: Antimicrobial activity (MIC)
# Description: as §1, §2
# S. epidermidis ATCC14990 = test: MIC, agar plate dilution method; conditions: Staphylococcus epidermidis, ATCC14990, 20 h, read-out: Antimicrobial activity (MIC), 37° C., 20 hours, SDA with 5% horse blood
# Description: as §1, §2
# E. coli NIHJ JC-2 = test: MIC, agar plate dilution method; conditions: 37° C., SDA with 5% horse blood; for MIC: Escherichia coli, NIHJJC2, 20 h, read-out: Antimicrobial activity (MIC)
# Description: as §1, §2
# S. aureus M126 = test: MIC, agar plate dilution method; conditions: Staphylococcus aureus, 37° C., 20 hours, SDA with 5% horse blood, read-out: Antimicrobial activity (MIC)
# Description: as §1, §2
# S. pyogenes Cook = test: MIC, agar plate dilution method; conditions: Streptococcus pyogenes
# Description: as §1, §2
# H. influenzae Type b = test: MIC, agar plate dilution method; conditions: Haemophilus influenzae
# Description: as §1, §2
# [1] = test system: clinically important Gram-positive bacteria; test: Antimicrobial activity / growth inhibition
# Description: as §1, §2
# test strains = test: Antimicrobial activity in vitro, test strains overall; conditions: for antimicrobial activities in comparison with rokitamycin: vs rokitamycin; for antimicrobial activities compared with compound (58): vs compound (58)
# Description: as §1, §2
# H. influenzae 9334 = test: MIC, agar plate dilution method
# Description: as §1, §2
# B. catarrhalis W-0400 = test: MIC, agar plate dilution method; conditions: Moraxella catarrhalis, W0400, 20 h, read-out: Antimicrobial activity (MIC)
# Description: as §1, §2
# [2] = read-out: Antimicrobial activity (MIC), 37° C., 20 hours, SDA with 5% horse blood
# [3] = MS15027, 20 h, read-out: Antimicrobial activity (MIC), 37° C., 20 hours, SDA with 5% horse blood
# [4] = 20 h, read-out: Antimicrobial activity (MIC), 37° C., 20 hours, SDA with 5% horse blood
# [5] = 37° C., 20 hours, SDA with 5% horse blood, read-out: Antimicrobial activity (MIC)
# [6] = W0506, 20 h, read-out: Antimicrobial activity (MIC), 37° C., 20 hours, SDA with 5% horse blood
# [7] = Haemophilus influenzae, 9334, 20 h, read-out: Antimicrobial activity (MIC), 37° C., 20 hours, SDA with 5% horse blood
# [8] = W0500, 20 h, read-out: Antimicrobial activity (MIC), 37° C., 20 hours, SDA with 5% horse blood
# [9] = 37° C., 20 hours, SDA with 5% horse blood
Compound,MIC (S. aureus MS15009/pMS98),MIC (S. aureus MS15027; [3]),MIC (K. pneumoniae PCI602),MIC (S. aureus MS15026),MIC (M. luteus ATCC9341),MIC (S. aureus MS15009/pMS99),MIC (S. pneumoniae Type 1),MIC (S. aureus M133),MIC (E. faecalis W-73),MIC (S. epidermidis ATCC14990),MIC (E. coli NIHJ JC-2),MIC (S. aureus M126),MIC (H. influenzae Type b; [4]),antimicrobial activities (in words) [1],MIC (S. pneumoniae IP692; [5]),MIC (B. catarrhalis W-0506; [6]),MIC (H. influenzae 9334; [7]),MIC (S. aureus 209P JC-1; [5]),MIC (S. pyogenes Cook; [5]),MIC (B. catarrhalis W-0500; [8]),also measured
"CO[C@@H]1[C@@H](O[C@@H]2O[C@H](C)[C@@H](O[C@H]3C[C@@](C)(OC)[C@@H](O)[C@H](C)O3)[C@H](N(C)C)[C@H]2O)[C@@H](CC=O)C[C@@H](C)[C@@H](O)/C=C/C=C/C[C@@H](C)OC(=O)C[C@H]1O [(4), 3""-O-methylleucomycin V]",0.39 µg/mL,0.78 µg/mL,> 100 µg/mL,> 100 µg/mL,0.05 µg/mL,> 100 µg/mL,0.05 µg/mL,0.78 µg/mL,0.78 µg/mL,0.78 µg/mL,> 100 µg/mL,> 100 µg/mL,12.5 µg/mL,strong antimicrobial activities,–,–,–,–,–,–,"MIC (S. pneumoniae IP692; [2]): 0.1 µg/mL; MIC (B. catarrhalis W-0500; W0500, 37° C., 20 hours, SDA with 5% horse blood, read-out: Antimicrobial activity (MIC)): 1.56 µg/mL; MIC (B. catarrhalis W-0506; W0506, 37° C., 20 hours, SDA with 5% horse blood, read-out: Antimicrobial activity (MIC)): 1.56 µg/mL; MIC (S. aureus 209P JC-1; [2]): 0.39 µg/mL; MIC (S. pyogenes Cook; [4]): 0.1 µg/mL; improvement of MIC values over corresponding compounds with free 3""-hydroxyl (midecamycin M1, leucomycin V) (test strains; most of the test strains): improved two to three times"
"CCCC(=O)O[C@H]1[C@H](C)O[C@@H](O[C@H]2[C@H](N(C)C)[C@@H](O)[C@H](O[C@H]3[C@@H](CC=O)C[C@@H](C)[C@@H](O)/C=C/C=C/C[C@@H](C)OC(=O)C[C@@H](O)[C@@H]3OC)O[C@@H]2C)C[C@@]1(C)OC [(33), 3""-O-methylleucomycin A5]",0.1 µg/mL,0.2 µg/mL,100 µg/mL,> 100 µg/mL,< 0.025 µg/mL,> 100 µg/mL,< 0.025 µg/mL,0.2 µg/mL,0.78 µg/mL,0.2 µg/mL,> 100 µg/mL,> 100 µg/mL,–,–,< 0.025 µg/mL,0.2 µg/mL,0.2 µg/mL,0.05 µg/mL,< 0.025 µg/mL,–,MIC (B. catarrhalis W-0400): 0.1 µg/mL; MIC (H. influenzae Type b; [5]): 1.56 µg/mL; antimicrobial activities compared with clarithromycin (test strains; vs clarithromycin): completely comparable to those of clarithromycin; antimicrobial activities in comparison with compound (2) (test strains; vs compound (2)): generally improved antimicrobial activities; antimicrobial activities in comparison with rokitamycin (test strains): markedly excellent antimicrobial activities in vitro
"CCCCC(=O)O[C@H]1[C@H](C)O[C@@H](O[C@H]2[C@H](N(C)C)[C@@H](O)[C@H](O[C@H]3[C@@H](CC=O)C[C@@H](C)[C@@H](O)/C=C/C=C/C[C@@H](C)OC(=O)C[C@@H](O)[C@@H]3OC)O[C@@H]2C)C[C@@]1(C)OC [(48), 3""-O-methyl-4""-O-n-valerylleucomycin V]",0.2 µg/mL,0.2 µg/mL,> 100 µg/mL,> 100 µg/mL,< 0.025 µg/mL,> 100 µg/mL,< 0.025 µg/mL,0.2 µg/mL,0.78 µg/mL,0.2 µg/mL,> 100 µg/mL,> 100 µg/mL,6.25 µg/mL,markedly strong microbial activities,< 0.025 µg/mL,0.2 µg/mL,0.78 µg/mL,0.05 µg/mL,< 0.025 µg/mL,0.1 µg/mL,antimicrobial activities compared with compound (58) (test strains): slightly superior antimicrobial activities; antimicrobial activities in comparison with rokitamycin (test strains): markedly excellent antimicrobial activities
"CO[C@@H]1[C@@H](O[C@@H]2O[C@H](C)[C@@H](O[C@H]3C[C@@](C)(OC)[C@@H](OC(=O)C(C)C)[C@H](C)O3)[C@H](N(C)C)[C@H]2O)[C@@H](CC=O)C[C@@H](C)[C@@H](O)/C=C/C=C/C[C@@H](C)OC(=O)C[C@H]1O [(53), 4""-O-isobutyryl-3""-Omethylleucomycin V]",0.2 µg/mL,0.2 µg/mL,> 100 µg/mL,> 100 µg/mL,< 0.025 µg/mL,> 100 µg/mL,< 0.025 µg/mL,0.2 µg/mL,0.78 µg/mL,0.2 µg/mL,> 100 µg/mL,> 100 µg/mL,6.25 µg/mL,markedly strong microbial activities,< 0.025 µg/mL,0.2 µg/mL,0.39 µg/mL,0.05 µg/mL,< 0.025 µg/mL,0.2 µg/mL,antimicrobial activities compared with compound (58) (test strains): slightly superior antimicrobial activities; antimicrobial activities in comparison with rokitamycin (test strains): markedly excellent antimicrobial activities
"CO[C@@H]1[C@@H](O[C@@H]2O[C@H](C)[C@@H](O[C@H]3C[C@@](C)(OC)[C@@H](OC(=O)CC(C)C)[C@H](C)O3)[C@H](N(C)C)[C@H]2O)[C@@H](CC=O)C[C@@H](C)[C@@H](O)/C=C/C=C/C[C@@H](C)OC(=O)C[C@H]1O [(58), 3""-O-methylleucomycin A1]",0.2 µg/mL,0.2 µg/mL,> 100 µg/mL,> 100 µg/mL,< 0.025 µg/mL,> 100 µg/mL,0.05 µg/mL,0.39 µg/mL,0.78 µg/mL,0.2 µg/mL,> 100 µg/mL,> 100 µg/mL,6.25 µg/mL,markedly strong microbial activities,0.05 µg/mL,0.2 µg/mL,0.78 µg/mL,0.05 µg/mL,0.05 µg/mL,0.2 µg/mL,–
"CC[C@H]1OC(=O)[C@H](C)[C@@H](O[C@H]2C[C@@](C)(OC)[C@@H](O)[C@H](C)O2)[C@H](C)[C@@H](O[C@@H]2O[C@H](C)C[C@H](N(C)C)[C@H]2O)[C@](C)(OC)C[C@@H](C)C(=O)[C@H](C)[C@@H](O)[C@]1(C)O [CAM, clarithromycin, reference compound]",> 100 µg/mL,> 100 µg/mL,100 µg/mL,> 100 µg/mL,< 0.025 µg/mL,> 100 µg/mL,< 0.025 µg/mL,–,0.78 µg/mL,0.1 µg/mL,100 µg/mL,> 100 µg/mL,6.25 µg/mL,–,< 0.025 µg/mL,0.2 µg/mL,–,0.05 µg/mL,< 0.025 µg/mL,0.2 µg/mL,"MIC (S. aureus MS15027; MS15027, 37° C., 20 hours, SDA with 5% horse blood, read-out: Antimicrobial activity (MIC)): 1.56 µg/mL; Antimicrobial activity (MIC) (K. pneumoniae PCI602; 20 hours): 50 µg/mL; Antimicrobial activity (MIC) (B. catarrhalis W-0506; [9]): 0.10 µg/mL; MIC (H. influenzae 9334; Haemophilus influenzae, 9334, 37° C., 20 hours, SDA with 5% horse blood, read-out: Antimicrobial activity (MIC)): 1.56 µg/mL; Antimicrobial activity (MIC) (S. aureus 209P JC-1; [9]): 0.10 µg/mL; MIC (B. catarrhalis W-0400): 0.1 µg/mL; Antimicrobial activity (MIC) (E. coli NIHJ JC-2; 20 hours): 50 µg/mL"
